Assay results as given in patent EP0917542B1, “PROCESS FOR POLYMERIZATION OF OLEFINIC MONOMERS” (E.I. DU PONT DE NEMOURS AND COMPANY, priority 1996, dated 1998).

Test: Stability in neutral aqueous dispersion, followed by 19F NMR
Type: physicochemical
Details: aqueous dispersion with ammonium perfluorononanoate surfactant; heated in an oil bath at 100°C for 2 hr
Description: A solution of 2.41 g of ammonium perfluorononanoate (surfactant) in 1-L of deionized water was processed for 5 minutes through a Microfluidizer™ Model 110T with 4.14 g of n-perfluorobutanesulfonyl chloride. The mixture was cooled by passing though a coil chilled in ice water during the processing. A clear mixture was obtained. […] A second aliquot of the solution was heated in an oil bath at 100°C for 2 hr and then analyzed by ^19F NMR. […] A more concentrated mixture was prepared by adding 10.4 g of n-perfluorobutanesulfonyl chloride to a solution of 0.5 g ammonium perfluorononanoate in 100 mL of deionized water with processing through the Microfluidizer™.

19F NMR spectrum after heating (stability in a neutral aqueous mixture): essentially unchanged
SMILES: O=S(=O)(Cl)C(F)(F)C(F)(F)C(F)(F)C(F)(F)F [n-perfluorobutanesulfonyl chloride]
